Test results from US12624013B2, “Purification of 2,5-furandicarboxylic acid, dimethyl ester and other esterified products” (Archer Daniels Midland Company, priority 2020, dated 2026).

Experiments:
Type in all cases: physicochemical
[1] = CIE 1976 (L*a*b*) colorimetry of stored purified FDME composition; details: after storage over 3 years in ambient air
Experimental: In this regard, the color of the purified FDME composition was evaluated quantitatively by determining its chromaticity coordinates in the L*a*b* color space. This refers to a particular color space of different color systems of the CIE, or Commission Internationale de l'Echairage (International Commission of Illumination), which color systems were developed as a way to standardize color, or express color values numerically, and thereby remove the subjectivity of the human observer. The CIE 1976 (L*a*b*) color space is based on the opponent-colors theory of color vision, according to which two colors cannot be both green and red at the same time, nor blue and yellow at the same time. Therefore, single values can be used to describe the red/green and the yellow/blue attributes of a sample. In this regard, when a color is expressed using the L a*b* color space, the respective coordinates of L*, a*, and b* denote lightness, the red/green value, and the yellow/blue value, with these coordinates ranging from −100 to +100. For purposes of characterizing compositions described herein with respect to yellow color, the value of b* is particularly relevant. The assessment of the L*, a*, and b* coordinates of the purified FDME composition was performed using a commercially available colorimeter from Konica Minolta, model CM-5.
(§1) To prepare a first sample, Sample #1, of the purified FDME composition for color analysis, a 0.597 gram portion of the composition was dissolved in 9.414 grams of a solvent mixture of 1:1 (v/v) acetonitrile/isopropanol, such that Sample #1 contained 5.96 wt-% of the dissolved composition. A second sample, Sample #2 was prepared by dissolving a 0.592 gram portion of the composition in 9.406 grams of this solvent, such that Sample #2 contained 5.92 wt-% of the dissolved composition. For each sample having a target concentration of 6 wt-% dissolved solids, two CIE 1976 (L*a*b*) colorimetry measurements and two APHA measurements were performed.

[2] = Solubility of FDME in various solvents (sonicated 15 minutes at 35° C.); details: for Solubility remarks / FDME solubility limits: 35° C.
Experimental: An impure solid FDME sample, obtained from the esterification of FDCA with methanol, was determined to have 82.6 wt-% FDME (dimethyl ester), in addition to 10.4 wt-% of the monomethyl ester, FDMME, resulting from incomplete esterification. The sample also contained 0.35 wt-% of the FDCA starting compound and 0.58 wt-% of the aldehyde contaminant, FFME. In separate solubility studies with different solvents, various amounts of this sample were charged to a scintillation vial, and in each case 10 ml of solvent was added.

[3] = APHA color (ASTM D1209) of stored purified FDME composition; details: Average of Samples #1 and #2, two measurements each; after storage over 3 years in ambient air
Experimental: Another color measurement, which is referred to as APHA color, was also determined for the purified FDME composition according to ASTM D1209. APHA color is also known as the Hazen scale, as well as the platinum cobalt (Pt/Co) scale. APHA is a color standard named for the American Public Health Association that was originally intended to describe the color of wastewater, but its usage has expanded to include other applications. APHA color is a color scale sometimes referred to as a “yellowness index” that is used to assess the quality of liquids that are clear to yellowish in color.
as §1

[4] = Storage stability of purified FDME crystals in ambient air; details: 3.5 years
Experimental: A 200 gram sample of a dried, impure mixture (crude composition comprising FDME) obtained from the esterification of FDCA with methanol to FDME was added to a 500 ml Erlenmeyer flask equipped with a PTFE magnetic stir bar. This solid composition was determined by UPLC-PDA to be 80 wt-% FDME, 18 wt-% FDMME, and 2 wt-% FDCA. Approximately 100 ml of methylene chloride was added to the flask, followed by 100 ml of 5 wt-% sodium bicarbonate. The biphasic solution was vigorously stirred for 30 minutes and transferred to a 1 liter separatory flask, which was used to remove the bottom organic phase. The top aqueous phase was extracted 2 times with additional extraction quantities, 30 ml each, of methylene chloride. These additional extraction quantities were combined with the organic phase, and the combined liquids were transferred to a 500 ml Wheaton bottle and placed in the freezer overnight. […] The retained crystals were dried with a stream of argon for 1 hour, determined to have a weight of 58.7 grams, and then stored in a 250 ml Wheaton bottle. A purity analysis of the crystals of the purified composition was carried out by quantitative ^1H NMR, indicating these to be 99.98 wt-% pure. The crystals were stored in ambient air and in a bottle on a tabletop.

[5] = Room temperature solubility of FDME in methanol; details: content of mother liquor
Experimental: The combination of filtration with diatomaceous earth and crystallization was investigated for its effectiveness in purifying a crude composition of FDME, having weight percentages of individual compounds as described in Example 1. A 105 gram sample of this crude composition was ground and dissolved in 700 ml of methanol to provide a 15 wt-% stock solution of the crude composition, which was maintained at 55° C. in a water bath with shaking. A 300 gram portion of this stock solution was removed and diluted to 2 wt-% dissolved solids, or approximately the room temperature solubility, and filtered on a 2″ diatomaceous earth (DE) filter using a Buchner funnel. Following this DE filtration, the solution was concentrated back to 20 wt-% in a crystallizer using a vacuum pump to evaporate the methanol solvent. […] Stirring at 100 rpm was maintained during the cooling, and the particle size distribution was determined in real time. […] It was determined that a 2-hour residence time at 35° C. and subsequent cooling to 30° C. leads to significant nucleation. […]
The solids from crystallization were emptied onto a Buchner funnel filter, and the crystals were sprayed with room temperature methanol. […] Following this single stage of crystallization, 67% of the FDME from the crude composition was recovered in the purified composition, which was determined to be 99.05 wt-% FDME and 0.86 wt-% FDMME. […]

[6] = Average of Samples #1 and #2, two measurements each
[7] = single measurements, about 6 wt-% in 1:1 (v/v) acetonitrile/isopropanol

L* [1, 6]: 99.43
a* [1, 6]: −0.01
b* [1, 6]: 0.39
L* [1, 7]: > 99
a* [1, 7]: < 0.5
b* [1, 7]: < 0.5
Solubility of crude compositions, summary in words ([2]; in methylene chloride, acetonitrile, N,N′-dimethylformamide, 1,4-dioxane, 1,1,2,2-tetrachloroethane, ethyl acetate, tetrahydrofuran, pyridine, acetone, dimethyl sulfoxide): favorable solubility
Solubility remarks ([2]; solvent 1,1,2,2-tetrachloroethane): Very soluble
FDME solubility limits ([2]; solvent 1,1,2,2-tetrachloroethane, impure FDME sample (82.6 wt-% FDME)): 23-27 wt-%
FDME solubility limits ([2]; solvent 1,3-Propanediol): <8 wt-%
Solubility remarks ([2]; solvent 1,3-Propanediol): Insoluble
FDME solubility limits ([2]; solvent 1,4-Dioxane): 23-28 wt-%
Solubility remarks ([2]; solvent 1,4-Dioxane): Very soluble
FDME solubility limits ([2]; solvent Acetone): 12-20 wt-%
Solubility remarks ([2]; solvent Acetone): Soluble
FDME solubility limits ([2]; solvent Acetonitrile): >39 wt-%
Solubility remarks ([2]; solvent Acetonitrile): Exceptionally soluble
FDME solubility limits ([2]; solvent Dimethyl sulfoxide): 9-13 wt-%
Solubility remarks ([2]; solvent Dimethyl sulfoxide): Soluble
FDME solubility limits ([2]; solvent Ethanol): <10 wt-%
Solubility remarks ([2]; solvent Ethanol): Insoluble
FDME solubility limits ([2]; solvent Ethyl Acetate): 18-25 wt-%
Solubility remarks ([2]; solvent Ethyl Acetate): Very soluble
FDME solubility limits ([2]; solvent Ethylene Glycol): <8 wt-%
Solubility remarks ([2]; solvent Ethylene Glycol): Insoluble
FDME solubility limits ([2]; solvent Methanol): <11 wt-%
Solubility remarks ([2]; solvent Methanol): Insoluble
FDME solubility limits ([2]; solvent Methyl-t-butyl ether): <10 wt-%
Solubility remarks ([2]; solvent Methyl-t-butyl ether): Insoluble
FDME solubility limits ([2]; solvent Methylene Chloride): 27-31 wt-%
Solubility remarks ([2]; solvent Methylene Chloride): Very soluble
FDME solubility limits ([2]; solvent N,N′-dimethylformamide): 30-35 wt-%
Solubility remarks ([2]; solvent N,N′-dimethylformamide): Very soluble
FDME solubility limits ([2]; solvent Pyridine): 17-23 wt-%
Solubility remarks ([2]; solvent Pyridine): Very soluble
FDME solubility limits ([2]; solvent THF): 17-23 wt-%
Solubility remarks ([2]; solvent THF): Very soluble
FDME solubility limits ([2]; solvent Toluene): <10 wt-%
Solubility remarks ([2]; solvent Toluene): Insoluble
Hazen/APHA [3]: 12
Purity on storage (stability) ([4]; crystals initially 99.98 wt-% pure, stored in ambient air in a bottle on a tabletop): maintained
Room temperature solubility in methanol [5]: approximately 2 wt-%
Structure (SMILES): COC(=O)c1ccc(C(=O)OC)o1 [FDME, 2,5-furandicarboxylic acid, dimethyl ester]
Appearance on storage (color stability, flow) ([4]; stored in ambient air): very little development of off-white color
